Assay results reported in patent US12011421B2, “Curcuphenol compounds for increasing MHC-I expression” (Cava Healthcare Inc., priority 2013, dated 2024).

What was measured:
[1] = tested on: TC1/A9 murine lung tumor cells; test: Cell toxicity in A9 cells by PI exclusion and intact cell number; format: cell-based; settings: FIG. 11B
Method: (§1) Curcuphenol and four curcuphenol analogs (see FIG. 10) were synthesized and tested for the ability to increase MHC-I expression in TC1/A9 murine lung tumor cells. Toxicity was also measured by propidium iodide (PI) exclusion.

MHC-I = MHC-I expression in TC1/A9 murine lung tumor cells; format: cell-based; settings: FIG. 11A
Method: as §1

Row | Structure (SMILES) | toxicity by propidium iodide (PI) exclusion and intact cell number [1] | MHC-I expression relative to controls (MHC-I)
1 | CC(C)=CCC[C@H](C)c1ccc(C)cc1O (stereo in doubt) [curcuphenol, phenol,2-(1,5-dimethyl-4-hexenyl)-5-methyl-, (S)—] | acceptable levels of toxicity | significantly increasing MHC-I expression
2 | CC(C)=CCCCc1ccc(C)cc1O [PC-02/113] | acceptable levels of toxicity | significantly increasing MHC-I expression
